Where two headings read alike, the source gives them in different places.
Columns and labels:
MDCK cells = assay: Screening phospholipidosis assay (LipidTOX Red / NucBlue Live fluorescence ratio); settings: for Ratio (15 μM): LipidTOX Red to NucBlue Live fluorescence ratio, 24 h
[1] = cited from earlier work
LPLA2 = target: T1, LPLA2 (Mus musculus, UniProt Q8VEB4); assay: LPLA2 thermal stability measurement (SYPRO Orange Tm); format: binding
T1 construct: purchased Proteos Inc. (Kalamazoo, MI)
T1 sequence (Q8VEB4 34-412): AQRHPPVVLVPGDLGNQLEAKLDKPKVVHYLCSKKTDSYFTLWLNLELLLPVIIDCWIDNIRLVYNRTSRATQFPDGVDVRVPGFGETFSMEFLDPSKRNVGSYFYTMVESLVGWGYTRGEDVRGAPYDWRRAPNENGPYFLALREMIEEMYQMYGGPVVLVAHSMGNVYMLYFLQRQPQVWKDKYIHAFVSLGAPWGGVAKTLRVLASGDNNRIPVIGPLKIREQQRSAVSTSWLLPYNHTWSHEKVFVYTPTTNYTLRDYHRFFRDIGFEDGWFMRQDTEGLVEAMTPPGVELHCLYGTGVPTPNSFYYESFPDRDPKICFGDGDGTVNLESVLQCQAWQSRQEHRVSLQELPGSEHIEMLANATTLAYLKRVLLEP

[2] = target: T2, recombinant mouse LPLA2 (PLA2G15) (Mus musculus, UniProt Q8VEB4); assay: Transacylase activity of LPLA2 (1-O-acyl-N-acetylsphingosine synthase, cell-free liposome assay); format: biochemical
T2 construct: purchased Proteos Inc. (Kalamazoo, MI)
T2 sequence (Q8VEB4 34-412): T1 sequence (Q8VEB4 34-412)

phospholipidosis [3] = settings: phospholipidosis reported in vitro; Refs of Table 1; cited from earlier work
phospholipidosis [4] = settings: phospholipidosis reported in vivo, species codes; Refs of Table 1; cited from earlier work
[5] = ref Pubchem and chEMBL database
[6] = LPLA2 dependent 1-O-acyl N-acetylsphingosine synthase activity, read-out: LPLA2 IC50
[7] = LPLA2 IC50, 1-O-acyl N-acetylsphingosine synthase activity, pH 4.5, DOPC/sulfatide liposomes
[8] = ref Pubchem and chEMBL databases
[9] = 1-O-acyl N-acetylsphingosine synthase activity, pH 4.5, DOPC/sulfatide liposomes, read-out: LPLA2 IC50

SMILES | (ΔTm)c-(ΔTm)d, difference in melting temperature of LPLA2 alone or in the presence of drug (LPLA2; N=3 ± SD) [°C] | IC50 [2, 6] [µM] | Ratio (15 μM) (MDCK cells) | pKa (basic) [1, 5] | other results
O=C(CCCN1CCN(c2ccccn2)CC1)c1ccc(F)cc1 [Azaperone] | 0.93 ± 0.1 |  | 0.43 | 7.16 | 
Cc1cc(C(C)(C)C)cc(C)c1CC1=NCCN1 [Xylometazoline] | 0.66 ± 0.0 | 44.3 | 0.16 | 10.29 | 
NC(=O)N1c2ccccc2C=Cc2ccccc21 [Carbamazepine] | -1.26 ± 0.1 | 106 | 0.18 | -3.8 | 
CCc1oc2ccccc2c1C(=O)c1cc(Br)c(O)c(Br)c1 [Benzbromarone, 2,6-dibromo-4-(2-ethyl-1-benzofuran-3-carbonyl)phenol] |  |  | 0.5 |  | IC50 [2, 7]: 3.8 µM; pKa (basic) [1, 8]: -3.8; (ΔTm)c-(ΔTm)d, difference in melting temperature of LPLA2 alone or in the presence of drug (LPLA2): -1.40 ± 0.3 °C; In Vitro PLD (phospholipidosis [3]): Yes
COc1cc(C(=O)OCCCN2CCCN(CCCOC(=O)c3cc(OC)c(OC)c(OC)c3)CC2)cc(OC)c1OC [Dilazep] | 0.11 ± 0.1 | 59.8 | 1.17 | 9.54 | 
Fc1ccc([C@@H]2CCNC[C@H]2COc2ccc3c(c2)OCO3)cc1 [Paroxetine, (3S,4R)-3-[(2H-1,3-benzodioxol-5-yloxy)methyl]-4-(4-fluorophenyl)piperidine] |  |  |  |  | IC50 [2, 9]: 5.12 µM; In Vivo PLD (phospholipidosis [4]): R
CCN1CCCC1CNC(=O)c1cc(S(=O)(=O)CC)c(N)cc1OC (stereo not drawn) [Amisulpride] | 0 | 1920 | 0.08 | 7.05 | 
Oc1ncnc2[nH]ncc12 [Allopurinol] | 0.67 ± 0.2 |  | 0.37 | 2.57 | 
Cl.NCCc1ccc(O)c(O)c1 [3-Hydroxytyramine hydrochloride] |  |  | 0.91 |  | (ΔTm)c-(ΔTm)d, difference in melting temperature of LPLA2 alone or in the presence of drug (LPLA2): 0.75 ± 0.0 °C
COc1ccc(C(=O)Nc2ccccc2CCC2CCCCN2C)cc1 (stereo not drawn) [Encainide, 4-methoxy-N-{2-[2-(1-methylpiperidin-2-yl)ethyl]phenyl} benzamide] | -0.76 ± 0.1 |  | 0.23 |  | IC50 [2, 9]: 76.1 µM; pKa (basic) [1, 8]: 9.41; In Vitro PLD (phospholipidosis [3]): Yes
Clc1cccc(Cl)c1N=C1NCCN1 [Clonidine] | -0.62 ± 0.0 |  | 0.25 | 8.16 | 
CN(Cc1ccc(C(C)(C)C)cc1)Cc1cccc2ccccc12 [Butenafine] | -2.22 ± 0.3 | 41.2 | 0.31 | 9.23 | 
O=C1NCC2(CCN(CCc3ccccc3)CC2)O1 [Fenspiride] | -1.67 ± 1.0 |  | 0.07 | 9.37 | 
Cn1c(=O)[nH]c2ncn(C)c2c1=O [1,7-Dimethylxanthine] | 0 |  | 0.55 | 13.5 | 
NCCc1cc(O)c(O)cc1O [6-Hydroxydopamine] | -0.14 ± 0.1 |  | 0.93 |  | 
CCOC(=O)COc1ccc2c(C)c(CCN(CC)CC)c(=O)oc2c1Cl [Cloricromen] | 0.24 ± 0.1 | 285 | 0.1 | 9.1 | 
CN1CCN(CCCN2c3ccccc3Sc3ccc(C(F)(F)F)cc32)CC1 [Trifluoperazine] |  | 6.87 | 0.81 | 8.39 | (ΔTm)c-(ΔTm)d, difference in melting temperature of LPLA2 alone or in the presence of drug (LPLA2): 0.49 ± 0.3 °C
COC(=O)[C@@H]1[C@H]2C[C@H]3c4[nH]c5ccccc5c4CCN3C[C@@H]2CC[C@@H]1O [Yohimbine, methyl (1S,15R,18S,19R,20S)-18-hydroxy-3,13-diazapentacyclo [11.8.0.0^2,^10.0^4,^9.0^15,^20]henicosa-2(10),4,6,8-tetraene-19-carboxylate] |  |  |  |  | IC50 [2, 7]: 200 µM; pKa (basic) [1, 8]: 7.65; (ΔTm)c-(ΔTm)d, difference in melting temperature of LPLA2 alone or in the presence of drug (LPLA2): 1.52 ± 0.6 °C; In Vitro PLD (phospholipidosis [3]): Yes
C=CCc1ccccc1OCC(O)CNC(C)C (stereo not drawn) [Alprenolol, 1-(o-allylphenoxy)-3-(isopropylamino)-2-propanol] | -1.00 ± 0.1 |  |  |  | IC50 [2, 9]: 173 µM; pKa (basic) [1, 8]: 9.67; In Vitro PLD (phospholipidosis [3]): Yes

Second part, led by results:

(ΔTm)c-(ΔTm)d, difference in melting temperature of LPLA2 alone or in the presence of drug (LPLA2; N=3 ± SD) [°C] | IC50 [2, 6] [µM] | SMILES | Ratio (15 μM) (MDCK cells) | pKa (basic) [1, 5] | other results
1.1 ± 0.0 |  | CC(COc1ccccc1)NC(C)C(O)c1ccc(O)cc1 (stereo not drawn) [Isoxsuprine] | 1.22 | 9 | 
0.66 ± 0.2 | 160 | CC(C)Cn1cnc2c(N)nc3ccccc3c21 [Imiquimod] | 0.07 | 5.01 | 
-1.85 ± 0.9 | 300 | COc1ccc(C2CNC(=O)C2)cc1OC1CCCC1 (stereo not drawn) [Rolipram] | 0.19 | -1.9 | 
 | 146 | CN1CCc2c(c3ccccc3n2Cc2ccccc2)C1 [Mebhydrolin] | 2.54 | 6.7 | 
-1.45 ± 0.9 | 5.76 | O=C(O)[C@@H]1C[C@@H](C2CCCCC2)CN1C(=O)CP(=O)(O)CCCCc1ccccc1 [Fosinoprilat] | 0.19 | -4.7 | IC50 [2, 9]: 5.8 µM; Signal in the LipidTOX assay (in words) (MDCK cells): positive signal
1.20 ± 0.1 | 100 | NNc1nncc2ccccc12 [Hydralazine] | 0.6 | 6.4 | 
0.94 ± 0.1 | 231 | CC(=O)O[C@H]1C[C@@]2(C)[C@@H](C[C@@H](O)[C@H]3[C@@]4(C)CC[C@@H](O)[C@@H](C)[C@@H]4CC[C@@]32C)/C1=C(\CCC=C(C)C)C(=O)O [Fuscidic acid] | 0.23 | -0.2 | 
0.83 ± 0.1 | 250 | NC(=O)C1(N2CCCCC2)CCN(CCCC(=O)c2ccc(F)cc2)CC1 [Pipamperone] | 0.37 | 8.96 | 
0.13 ± 0.1 | 60 | O=C1NC(=O)C(c2ccccc2)(c2ccccc2)N1 [Phenytoin] | 0.38 |  | 
-1.05 ± 4.0 | 61.8 | C[C@]12CC[C@@H]3c4ccc(O)cc4C[C@@H](CCCCCCCCC[S+]([O-])CCCC(F)(F)C(F)(F)F)[C@H]3[C@@H]1CC[C@@H]2O (stereo partly drawn) [Fulvestrant] | 0.37 | -0.88 | 
2.00 ± 0.2 | 6.82 | CCCCCCCCNC(C)C(O)c1ccc(SC(C)C)cc1 (stereo not drawn) [Suloctidil] | 0.66 | 9.76 | 
0.15 ± 0.1 | 38 | COc1ccc2[nH]cc(CCNC(C)=O)c2c1 [Melatonin] | 0.26 | -1.6 | 
1.30 ± 0.1 | 12.9 | COCC(=O)O[C@]1(CCN(C)CCCc2nc3ccccc3[nH]2)CCc2cc(F)ccc2[C@@H]1C(C)C [Mibefradil] | 1.21 | 9.82 | 
-0.23 ± 0.1 |  | Cc1ccc(Cl)c(Nc2ccccc2C(=O)O)c1Cl [Meclofenamic acid] | 0.52 | -3.6 | 
-1.20 ± 0.1 | 14.9 | CC[C@H](NC(=O)c1c(C)c(-c2ccccc2)nc2ccccc12)c1ccccc1 [sb222200] | 0.34 | 9.57 | 
-1.90 ± 02 | 13.4 | Cc1nc2sccn2c(=O)c1CCN1CCC(=C(c2ccc(F)cc2)c2ccc(F)cc2)CC1 [Ritanserin] | 0.19 | 8 | 

From PMC8243516, “Inhibition of lysosomal phospholipase A2 predicts drug-induced phospholipidosis” (Journal of Lipid Research, 2021)
